Experimental data published in patent US8236784B2, “Composition comprising threitol phosphate and salts thereof” (Sunny Biodiscovery, Inc., priority 2007, dated 2012).

System: adult human epidermal keratinocytes (aHEK)
Assay: Proliferation of adult human epidermal keratinocytes (aHEK)
Type: cell-based
Conditions: 100 ug/ml; vs water (0 μg/ml)
Text: Example 3(e): FIG. 6 depicts the effect of threitol-1 diphosphate on the proliferation of adult human epidermal keratinocytes (aHEK).

`O=P(O)(O)OP(=O)(O)OC[C@@H](O)[C@H](O)CO` [DP sSBD4, threitol-1-diphosphate] was tested, and the “stimulation of human adult epidermal keratinocyte proliferation” value was 17%.
